One compound from patent publication US20080107625A1, “Inhibitors of Hepatitis C Virus” (Bristol-Myers Squibb Company, priority 2006, published 2008) can be followed below.

What all share (assay type): biochemical
In experiment [1] the target is T1, HCV NS3/4A protease complex, H77 strain (Hepatitis C virus genotype 1a, UniProt P27958, C1454S/C1711G).
T1 construct: recombinant HCV NS3/4A protease complex (amino acids 1027 to 1711) for these strains; His-tag (inferred from pET21b vector and Ni-NTA purification); made in house; host or cells: Escherichia coli BL21 (DE3), pET21b
T1 sequence (P27958 1027-1711 C1454S/C1711G, one chain of several): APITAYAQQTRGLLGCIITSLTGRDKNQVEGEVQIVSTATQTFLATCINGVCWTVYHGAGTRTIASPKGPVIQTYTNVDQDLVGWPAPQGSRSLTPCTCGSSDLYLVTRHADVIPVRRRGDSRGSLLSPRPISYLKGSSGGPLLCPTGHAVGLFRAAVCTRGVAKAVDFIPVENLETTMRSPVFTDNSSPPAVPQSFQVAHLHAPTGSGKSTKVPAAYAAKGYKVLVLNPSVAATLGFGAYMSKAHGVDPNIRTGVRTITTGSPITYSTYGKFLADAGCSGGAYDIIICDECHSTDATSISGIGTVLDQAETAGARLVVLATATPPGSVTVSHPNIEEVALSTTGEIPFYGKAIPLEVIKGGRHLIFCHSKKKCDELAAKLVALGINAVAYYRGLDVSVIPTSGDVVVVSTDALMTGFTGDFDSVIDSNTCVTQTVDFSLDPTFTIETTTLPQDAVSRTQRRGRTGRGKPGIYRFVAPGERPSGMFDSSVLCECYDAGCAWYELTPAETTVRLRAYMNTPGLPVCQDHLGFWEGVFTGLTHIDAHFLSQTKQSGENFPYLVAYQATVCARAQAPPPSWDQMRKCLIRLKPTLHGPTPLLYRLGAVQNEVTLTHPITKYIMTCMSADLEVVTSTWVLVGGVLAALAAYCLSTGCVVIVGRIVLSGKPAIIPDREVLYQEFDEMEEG
The experiment can be described thus: FRET peptide assay to monitor HCV NS3/4A proteolytic activity (H77 strain). To be noted: H77 strain (1a genotype). The text has this: (§1) HCV NS3 protease complexes, derived from the BMS strain, H77 strain or J4L6S strain, were generated, as described below. These purified recombinant proteins were generated for use in a homogeneous assay (see below) to provide an indication of how effective compounds of the present disclosure would be in inhibiting HCV NS3 proteolytic activity.
(§2) The H77 and J4L6S strains were used for production of recombinant NS3/4A protease complexes. DNA encoding the recombinant HCV NS3/4A protease complex (amino acids 1027 to 1711) for these strains were manipulated as described by P. Gallinari et al. (see Gallinari P, Paolini C, Brennan D, Nardi C, Steinkuhler C, De Francesco R. Biochemistry. 38(17):5620-32, (1999)). Briefly, a three-lysine solubilizing tail was added at the 3′-end of the NS4A coding region. The cysteine in the P1 position of the NS4A-NS4B cleavage site (amino acid 1711) was changed to a glycine to avoid the proteolytic cleavage of the lysine tag. Furthermore, a cysteine to serine mutation was introduced by PCR at amino acid position 1454 to prevent the autolytic cleavage in the NS3 helicase domain. […]

The target of experiment [2] is T2, HCV NS3/4A protease complex, J4L6S strain (Hepatitis C virus genotype 1b, UniProt O92972, C1454S/C1711G).
T2 construct: recombinant HCV NS3/4A protease complex (amino acids 1027 to 1711) for these strains; His-tag (inferred from pET21b vector and Ni-NTA purification); made in house; host or cells: Escherichia coli BL21 (DE3), pET21b
T2 sequence (O92972 1027-1711 C1454S/C1711G, one chain of several): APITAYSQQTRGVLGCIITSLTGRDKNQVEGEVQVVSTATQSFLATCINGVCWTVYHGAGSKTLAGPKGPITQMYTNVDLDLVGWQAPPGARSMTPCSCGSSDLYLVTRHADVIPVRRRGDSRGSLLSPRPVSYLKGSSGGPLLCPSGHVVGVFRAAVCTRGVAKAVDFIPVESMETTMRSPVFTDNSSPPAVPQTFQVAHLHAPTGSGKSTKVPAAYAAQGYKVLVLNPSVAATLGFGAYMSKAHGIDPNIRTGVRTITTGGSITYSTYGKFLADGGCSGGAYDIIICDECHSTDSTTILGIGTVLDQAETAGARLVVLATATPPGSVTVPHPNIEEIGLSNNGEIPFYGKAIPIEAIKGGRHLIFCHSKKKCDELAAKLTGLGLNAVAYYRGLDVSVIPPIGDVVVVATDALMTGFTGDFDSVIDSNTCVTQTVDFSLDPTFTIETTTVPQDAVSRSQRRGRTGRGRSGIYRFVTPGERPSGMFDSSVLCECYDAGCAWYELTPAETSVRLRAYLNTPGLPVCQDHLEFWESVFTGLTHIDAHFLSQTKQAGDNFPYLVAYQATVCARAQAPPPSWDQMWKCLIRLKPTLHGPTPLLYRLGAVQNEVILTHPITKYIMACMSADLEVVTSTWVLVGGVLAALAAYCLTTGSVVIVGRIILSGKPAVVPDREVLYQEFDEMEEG
The experiment can be described thus: FRET peptide assay to monitor HCV NS3/4A proteolytic activity (J4L6S strain). To be noted: J4L6S strain (1b genotype).
Text: as §1, §2

Experiment [3] has as its target T3, human neutrophil elastase (HNE) (Homo sapiens, UniProt P08246).
T3 construct: purchased Sigma or EMDbiosciences
T3 sequence (P08246 30-267): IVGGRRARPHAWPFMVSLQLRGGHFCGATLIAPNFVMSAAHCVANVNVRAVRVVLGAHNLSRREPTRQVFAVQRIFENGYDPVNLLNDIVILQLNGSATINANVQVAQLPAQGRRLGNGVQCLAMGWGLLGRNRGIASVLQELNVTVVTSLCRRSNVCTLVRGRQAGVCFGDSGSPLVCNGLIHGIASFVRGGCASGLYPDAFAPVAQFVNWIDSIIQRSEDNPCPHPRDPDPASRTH
Nature of the experiment: Specificity assay, neutrophil elastase. To be noted: read-out: HLE activity in the specificity assay (IC50). As for the experimental part: The specificities of compounds of the present disclosure were determined against a variety of serine proteases: human neutrophil elastase (HNE), porcine pancreatic elastase (PPE) and human pancreatic chymotrypsin and one cysteine protease: human liver cathepsin B. In all cases, a 96-well plate format protocol using colorimetric p-nitroaniline (pNA) substrate or fluorometric Amino-Methyl-Coumarin (AMC) substrate, specific for each enzyme was used as described previously (PCT Patent Application No. WO 00/09543) with some modifications. All enzymes were purchased from Sigma or EMDbiosciences while the substrates were from Bachem.
Each pNA assay included a 2 h enzyme-inhibitor pre-incubation at room temperature followed by addition of substrate and hydrolysis to ˜15% conversion as measured on a Spectramax Pro microplate reader. The cathepsin B assay was initiated by adding substrate to a 10 min enzyme-inhibitor pre-incubation at room temperature, and the assay plate measured immediately using the Cytofluor Series 4000. Compound concentrations varied from 100 to 0.4 μM depending on their potency.
50 mM Tris(hydroxymethyl)aminomethane hydrochloride (Tris-HCl) pH 8, 0.5 M Sodium Sulfate (Na2SO4), 50 mM NaCl, 0.1 mM EDTA, 3% DMSO, 0.01% Tween-20 with: […]
The percentage of inhibition was calculated using the formula: [1−((UVinh−UVblank)/(UVctl−UVblank))]×100 […]

As a reminder, the IC50 is the midpoint of a concentration-inhibition curve. Regarding `CC(C)(C)OC(=O)N[C@H]1CN(C2CC2)CCC/C=C\C2C[C@@]2(C(=O)NS(=O)(=O)C2CC2)NC(=O)[C@@H]2C[C@@H](Oc3ccccn3)CN2C1=O` (stereo partly drawn) [Compound 1], the IC50 is 0.018 µM in experiment [1], 0.012 µM in experiment [2] and > 100 µM in experiment [3].
